In patent US20230226079A1, “METHODS AND COMPOSITIONS FOR TREATMENT OF SOLID TUMORS” (Saint Louis University, priority 2022, published 2023):
Converted amounts (≈) assume the structure as drawn.

Legend:
NK3.3 cells = assay: NK-cell viability; format: cell-based
Protocol: FIG. 9 illustrates NK3.3 cells treated with bitter melon extract or M-I and cell viability was measured at 48h or 72h after treatment. Results shown are an average of three independent experiments. Small bar indicates standard error. (* p <0.05)
(§1) NK cells are implicated in drug induced resistant cancer cells to drive tumor growth (Smalley et al., 2020). […] Bitter melon extract was used as a control. Control or M-I treated NK3.3 cells were also cocultured with MDA-MB-231 cells at 1:5 (Target:Effector) ratio for 24 h and stained for viable/dead cells. […] The apoptotic markers were further examined by Western blot analysis.

Ca127 xenograft = assay: Tumorigenicity assay, Ca127 xenograft model; format: in vivo, nude mice; conditions: M-I 30 mg/kg IP once a day, BME 30% in drinking water
Protocol: (§2) JHU029 or Ca127 cells (1.5 10^6) containing 40% Matrigel were injected subcutaneously into the flank of BALB/c athymic nude mice (7-8 weeks old). When the palpable tumor was developed (>60 mm3), mice were divided into three groups randomly, 5 mice in each group. The control group was without any treatment. The BME group received 30% (v/v) BME through drinking water. M-I group received 30 mg/kg dose of M-I once in day, every day. Body weight was monitored, and tumor size was measured using a slide caliper and volume was calculated using the formula 1/2 L X W2. After animal sacrifice tumors were dissected out and snap frozen in liquid nitrogen for further analysis. All the animal experiments were carried out in accordance NIH guidelines, following a protocol approved (1017) by the Institutional Animal Care and Use Committee (IACUC) of Saint Louis University.

Ca127 cells = assay: Cytotoxicity assay (Cell Counting Kit-8) in Ca127 cells; format: cell-based; conditions: 48 h, treated for 48 h; read-out: IC50 dose, Ca127 cells
From the text: (§3) Normal oral keratinocytes (NOK) (kindly gifted by Dr. Karl Mugner, Tuffs University, Boston, MA, USA) were maintained in Keratinocyte SFM medium supplemented with EGF and bovine pituitary extract (GIBCO, Life Technologies, Berkeley, MO, USA) and 1% penicillin/ streptomycin. HNC cell line Ca127 was purchased from the ATCC. JHU029 (JHU-29) and JHU022 (JHU-22) cell lines were procured from the Johns Hopkins University (Baltimore, MD, USA). The Ca127 and JHU022 cells were maintained in Dulbecco's Modified Eagle Medium (DMEM), and JHU029 cells were in RPMI1640 (Sigma, St. Louis, Mo., USA) media supplemented with 10% FBS and 1% penicillin/ streptomycin (Sigma-Aldrich, St. Louis, Mo., USA) in a humidified CO2 incubator. The cell lines are routinely tested in the Inventors' laboratory to rule out mycoplasma contamination using a commercial Mycoplasma Detection kit (MycoAlert™, Lonza, Morrisville, N.C., USA). Ca127 cells are tongue origin and JHU022 and JHU029 cells are from larynx origin.
(§4) Bitter melon extract (BME) was prepared from the Chinese variety of young bitter melons (raw and green) as described previously (Rajamoorthi et al. (2013) PLoS ONE; 8, e78006). Briefly, BME was prepared by aqueous extraction from whole fruit without seeds using a household juicer at room temperature with subsequent centrifugation at 15000 g at 4 C for 30 min. BME was stored at −80 C for further analysis. […]

4T1 cells = assay: Cell viability of 4T1 cells; format: cell-based; conditions: Mus musculus, 72h
Protocol: FIG. 8 illustrates 4T1 and MDA-MB-231 cells treated with M-I at indicated doses for 72h. The viability of control cells was arbitrarily set to 100%. Results shown are an average of three independent experiments. Data are represented as mean±SD.
(§5) The Inventors tested human MDA-MB-231 and mouse 4T1 cells in dose dependent manner (FIG. 8). […] The Inventors also tested other compounds in TNBC cell cytotoxicity assays, but these required much higher amounts (>[…]) even for ˜40% cell death.

JHU029 xenograft = assay: Tumorigenicity assay, JHU029 xenograft model; format: in vivo, nude mice
Protocol: as §2

rat cardiac fibroblasts = conditions: cited from earlier work
[1] = test system: TNBC cell lines MDA-MB-231, BT459 and MDA-MB-468; assay: TNBC cell cytotoxicity assays; format: cell-based
From the text: as §5

MDA-MB-231 cells = format: cell-based
From the text: FIG. 10A illustrates Treated or untreated cells were stained with Calcein AM (green color indicates live cells) and ethidium homodimer-1 (red color inndicates dead cells-shown by white arrows) to quantitate the live and dead cells by fluorescence microscopy with corresponding bright field images. Magnification 10X. Arrows indicate dead cells. FIG. 10B illustrates Quantitation of relative dead cells, calculated from five random fields. Small bar indicates standard error ***p<0.001).
FIG. 11 illustrates M-I activates NK cells for killing activity. MDA-MB-231 cells were co-cultured with NK cells activated by IL2, BME or M-I. After 24 hr cell lysates were prepared and subjected to Western blot analysis using specific antibodies. Left panel: Representative western blot images for cleaved PARP, expression of cleaved Caspase 9 and 3 are shown. Membrane was reprobed with antibody for Actin as an internal control.
as §1

JHU029 cells = assay: Cytotoxicity assay (Cell Counting Kit-8) in JHU029 cells; format: cell-based; conditions: 48 h, treated for 48 h; read-out: IC50 dose, JHU029 cells
From the text: as §3, §4

CC(C)=CC(O)CC(C)[C@H]1CC[C@@]2(C)[C@@H]3[C@@H](O)C=C4[C@@H](CC[C@H](O)C4(C)C)[C@]3(C=O)CC[C@]12C (stereo partly drawn) [M-I, (3S, 7S, 8S, 9R, 10R, 13R, 14S, 17R) 3,7-dihydroxy-17-(4-hydroxy-6-methylhept-5-en-2-yl)-4,4,13,14-tetramethyl-2,3,7,8,10,11, 12,15, 16,17-decahydro-1H-cyclopenta[a]phenanthrene-9-carbaldehyde]
NK-cell viability (NK3.3 cells): no cytotoxic effect
reduction of tumor growth (Ca127 xenograft): −50%
body weight (Ca127 xenograft; throughout the experiment): increasing body weight
IC50 (Ca127 cells): < 8 µg/mL
IC50 (4T1 cells): 5 µg/mL (≈ 10.6 µM)
reduction of tumor growth, M-I compared with BME (JHU029 xenograft; M-I 30 mg/kg IP once a day versus BME 30% in drinking water): better effect
tumor volume (JHU029 xenograft; M-I 30 mg/kg IP once a day, BME 30% in drinking water, sacrifice day 32): significantly reduced tumor volume
sudden drop in body weight (JHU029 xenograft; three out of five mice, Day 20, M-I 30 mg/kg IP once a day, weight gained back): −10%
high-glucose-induced cell proliferation and collagen synthesis (rat cardiac fibroblasts): inhibitory effects
cell growth of TNBC cell lines [1]: inhibits cell growth in a time-dependent manner
cytotoxicity of treated NK3.3 cells against MDA-MB-231 cells (MDA-MB-231 cells): enhanced cytotoxicity
caspase 9/3 and PARP cleavage in breast cancer cells (MDA-MB-231 cells; M-I treated NK cells co-cultured with MDA-MB-231 cells, 24 hr, Western blot): activate caspase 9/3 and PARP cleavage
IC50 (JHU029 cells): < 8 µg/mL
